Results from US5990317A, “2-(1H-4(5)-imidazoyl) cyclopropyl compounds” (Gliatech, Inc., priority 1998, dated 1999).
Counter-ions that a name gives are not always drawn.

Target: Histamine H3 receptor
Test: In Vitro Histamine H3 Receptor Binding Analysis ([3H]-N-alpha-methylhistamine displacement, rat cortical membranes)
Details: [3H]-N-alpha-methylhistamine 0.8-1.2 nM, pH 7.4, 40 min, 25° C, read-out: Histamine H3 Receptor Binding Affinities, H3 Receptor Ki
Protocol: Histamine H3 receptor affinity was determined in rat cortical membranes using the H3 selective agonist ligand, [^3 H]-N^α -methylhistamine (78.9 Ci/mole, DuPont NEN Research Products, Boston, Mass.) according to the method of West et al., (1990) Mol. Pharmacol. 38: 610-613 with modifications. Briefly, animals were sacrificed by decapitation and the cerebral cortex was rapidly removed. Rat cortices were mechanically homogenized with an Omni 1000 motor driven homogenizer in 10 volumes (wt/vol) of Krebs-Ringers Hepes buffer (pH 7.4) containing the following protease inhibitors: EDTA (10 mM), PMSF (0.1 mM), chymostatin (0.2 mg/50 mL) and leupeptin (0.2 mg/50 mL). The homogenate was centrifuged in a Sorvall at ~40,000×g for 30 min. The pellet was resuspended by mechanical homogenization in 25 mL water and lysed on ice for 30 min. The homogenate was recentrifuged and the membrane lysis was repeated. The membranes were recentrifuged and the final pellet was resuspended in 14 volumes of water to give approximately 200 μg protein/100 μl final concentration. The suspension was stored at -80° prior to use. Protein concentrations were determined by Coomassie Plus Protein Assay (Pierce, Rockford, Ill.).
Nonspecific binding (NSB) was accounted for by the inclusion of thioperamide (10 μM). Samples were incubated for 40 minutes at 25° C. The samples were filtered through glass fiber strips, pre-washed with 0.3% polyethyleneimine, using a Brandell cell harvester. The filters were rapidly washed three times with 4 ml of 25 mm Tris buffer containing 145 mM NaCl (pH 7.4, 4° C.). Filters were transferred to polyethylene mini-vials and counted in 3.5 ml of scintillation fluid (Ecolume, ICN Biomedicals, Inc.). […] Saturation and competition experiments were analyzed with the ReceptorFit saturation and competition curve fitting programs (Lundon Software, Ind., Cleveland, Ohio).

Row | SMILES | Ki [nM]
1 | C[C@@H](NC(=O)C1CC1c1c[nH]cn1)C1CCCCC1 (mixture of isomers) [Example 6, N-[(R)-1-Cyclohexylethyl]-3-(1H-imidazol-4-yl)-trans-(2R,3R)-cyclopropanamide and N-[(R)-1-Cyclohexylethyl]-3-(1H-imidazol-4-yl)-trans-(2S,3S)-cyclopropanamide hydrochloride] | 70 ± 8.6
2 | C[C@H](NC(=O)C1CC1c1c[nH]cn1)C1CCCCC1 (mixture of isomers) [Example 7, N-[(S)-1-Cyclohexylethyl]-3-(1H-imidazol-4-yl)-trans-(2R,3R)-cyclopropanamide and N-[(S)-1-Cyclohexylethyl]-3-(1H-imidazol-4-yl)-trans-(2S,3S)-cyclopropanamide hydrochloride] | 146 ± 13
3 | O=C(CCCC1CCCCC1)[C@@H]1C[C@H]1c1c[nH]cn1 (racemic) [Example 10, (±)-trans-4-cyclohexyl-1-(2-imidazol-4-ylcyclopropyl)butan-1-one] | 97 ± 21
4 | CN(CC1CCCCC1)C(=O)[C@@H]1C[C@H]1c1c[nH]cn1 (racemic) [Example 11, (±)-trans-N-(cyclohexylmethyl)(2-imidazol-4-ylcyclopropyl)-N-methylformamide] | 134 ± 13
5 | c1nc([C@@H]2C[C@H]2COCCCC2CCCCC2)c[nH]1 (racemic) [Example 18, (±)-trans-(3-cyclohexylpropoxy)(2-imidazol-4-ylcyclopropyl)methane] | 240 ± 6
6 | OC(CCCC1CCCCC1)[C@@H]1C[C@H]1c1c[nH]cn1 (mixture of isomers) [Example 19, (±)-trans-4-cyclohexyl-1-(2-imidazol-4-ylcyclopropyl)butan-1-ol] | 160 ± 9
7 | O=C(NCc1ccccc1)[C@@H]1C[C@H]1c1c[nH]cn1 (relative stereo) [Example 1, N-(1-Benzyl)-3-[(1H-imidazol-4-yl)]-(2R,3R)-trans-cyclopropanamide and N-(1-Benzyl)-3-[(1H-imidazol-4-yl)]-(2S,3S)-trans-cyclopropanamide hydrochloride] | 53 ± 2
8 | O=C(NCC1CCCCC1)[C@@H]1C[C@H]1c1c[nH]cn1 (relative stereo) [Example 2, (±)-trans-N-(cyclohexylmethyl)(2-imidazol-4-ylcyclopropyl)formamide] | 37 ± 4
9 | CC1CCCCN1CCCNC(=O)[C@@H]1C[C@H]1c1c[nH]cn1 (relative stereo) [Example 3, (±)-trans-(2-imidazol-4-ylcyclopropyl)-N-(3-((±)-2-methylpiperidyl)formamide] | 659 ± 52
10 | O=C(NCCCN1CCOCC1)[C@@H]1C[C@H]1c1c[nH]cn1 (relative stereo) [Example 4, (±)-trans-(2-imidazol-4-ylcyclopropyl)-N-(3-morpholin-4-ylpropyl)formamide] | 1400 ± 158
11 | O=C(Nc1ccccc1)[C@@H]1C[C@H]1c1c[nH]cn1 (relative stereo) [Example 5, N-(phenyl)-3-(1H-imidazol-4-yl)-trans-(2R,3R)-cyclopropanamide and N-(phenyl)-3-(1H-imidazol-4-yl)-trans-(2S,3S)-cyclopropanamide hydrochloride] | 267 ± 26
12 | O=C(NCC12CC3CC(CC(C3)C1)C2)[C@@H]1C[C@H]1c1c[nH]cn1 (relative stereo) [Example 8, N-[1-Adamantylmethyl]-3-(1H-imidazol-4-yl)-trans-(2R,3R)-cyclopropanamide hydrochloride and N-[1-Adamantylmethyl]-3-(1H-imidazol-4-yl)-trans-(2S,3S)-cyclopropanamide hydrochloride] | 55 ± 6
13 | O=C(NCCc1ccccc1)[C@@H]1C[C@H]1c1c[nH]cn1 (relative stereo) [Example 9, (±)-trans-(2-imidazol-4-ylcyclopropyl)-N-(2-phenylethyl)formamide] | 163 ± 19
14 | C(=C/[C@@H]1C[C@H]1c1c[nH]cn1)/CCC1CCCCC1 (relative stereo) [Example 16, (±)-trans-4-(2-(4-cyclohexylbut-cis-1-enyl)cyclopropyl)imidazole] | 12.2 ± 1
15 | C(=C\[C@@H]1C[C@H]1c1c[nH]cn1)/CCC1CCCCC1 (relative stereo) [Example 17, (±)-trans-4-(2-(4-cyclohexylbut-trans-1-enyl)cyclopropyl)imidazole] | 11 ± 1
16 | O=C(N[C@@H]1C[C@H]1c1c[nH]cn1)OCc1ccccc1 (relative stereo) [Example 26, (±)-trans-N-(2-imidazol-4ylcyclopropyl)(phenylmethoxy)formamide] | 5.8 ± 0.4
17 | O=C(NCCCC1CCCCC1)[C@@H]1C[C@H]1c1c[nH]cn1 (relative stereo) [Example 29, N-[3-cyclohexylpropyl]-3(R)-[1H-imidazoyl-4-yl]-2(R)-cyclopropanamide and N-[3-Cyclohexylpropyl]-3(S)-[1H-imidazoyl-4-yl]-2(R)-cyclopropanamide] | 36 ± 8
18 | O=C(NCCC1=CCCCC1)[C@@H]1C[C@H]1c1c[nH]cn1 (relative stereo) [Example 31, N-[2-Cyclohex-1-enyl-ethyl]-3(R)-[1H-imidazol-4-yl]-2(R)-cyclopropanamide HCl salt and N-[2-Cyclohex-1-enyl-ethyl]-3(S)-[1H-imidazol-4-yl]-2(S)-cyclopropanamide HCl salt] | 294 ± 26
19 | O=C(NCC1CC1)[C@@H]1C[C@H]1c1c[nH]cn1 (relative stereo) [Example 32, (±)-trans-N-(cyclopropylmethyl)(2-imidazol-4-ylcyclopropyl)formamide] | 876 ± 158

Row | SMILES | Ki [nM]
20 | O=C(NCCCc1ccccc1)[C@@H]1C[C@H]1c1c[nH]cn1 (relative stereo) [Example 33, (±)-trans-(2-imidazol-4-ylcyclopropyl)-N-(3-phenylpropyl)formamide] | 197 ± 23
21 | O=C(NCCc1c[nH]cn1)[C@@H]1C[C@H]1c1c[nH]cn1 (relative stereo) [Example 34, (±)-trans-(2-imidazol-4-ylcyclopropyl)-N-(2-imidazol-4-ylethyl)formamide] | 227 ± 26
22 | O=C(NCCc1c[nH]c2ccccc12)[C@@H]1C[C@H]1c1c[nH]cn1 (relative stereo) [Example 35, (±)-trans-(2-imidazol-4-ylcyclopropyl)-N-(2-indol-3-ylethyl)formamide] | 44 ± 73
23 | O=C(NCC(O)CC1CCCCC1)[C@@H]1C[C@H]1c1c[nH]cn1 (relative stereo) [Example 36, (±)-trans-N-(3-cyclohexyl-2-(±)-hydroxypropyl)(2-imidazol-4-ylcyclopropyl)formamide] | 145
24 | O=C(NCCCCC1CCCCC1)[C@@H]1C[C@H]1c1c[nH]cn1 (relative stereo) [Example 37, (±)-trans-N-(4-cyclohexylbutyl)(2-imidazol-4-ylcyclopropyl)formamide] | 68
25 | O=C(NCC1CCCCC1)[C@H]1C[C@@H]1c1c[nH]cn1 [Example 2a] | 23 ± 1
26 | O=C(NCC1CCCCC1)[C@@H]1C[C@H]1c1c[nH]cn1 [Example 2b] | 176 ± 9
27 | NC(CC1CCCCC1)C(=O)NC1CC1c1c[nH]cn1 [Example 12, (1R,2R)-trans-2(S)-amino-3-cyclohexyl-N-(2-imidazol-4-ylcyclopropyl)propanamide] | 1.85 ± 0.5
28 | NC(CC1CCCCC1)C(=O)NC1CC1c1c[nH]cn1 [Example 13, (1S,2S)-trans-2(S)-amino-3-cyclohexyl-N-(2-imidazol-4-ylcyclopropyl)propanamide] | 21.5 ± 1.8
29 | O=C(N[C@H]1C[C@@H]1c1c[nH]cn1)[C@@H]1CC2CCCCC2N1 (stereo partly drawn) [Example 14, (2R,3R)-trans-(7-azabicyclo[43.0]non-(S)-8-yl)-N-(2-imidazol-4-ylcyclopropyl)formamide] | 8.5 ± 0.7
30 | O=C(N[C@@H]1C[C@H]1c1c[nH]cn1)[C@@H]1CC2CCCCC2N1 (stereo partly shown) [Example 15] | 37 ± 4
31 | NC(C=CC1CC1c1c[nH]cn1)CC1CCCCC1 [Example 20, (1R,2R)-trans-1-cyclohexyl-4-(2-imidazol-4-ylcyclopropyl)but-trans-3-en-2(S)-ylamine] | 0.37 ± 0.2
32 | NC(C=CC1CC1c1c[nH]cn1)CC1CCCCC1 [Example 21, 1(R)-[1H-imidazol-4-yl]-2(R)-cyclopropyl-5-(S)-amino-6-cyclohexyl-3-cis-hexene] | 97.7 ± 28
33 | C(=CC1CC1c1c[nH]cn1)CCC1CCCCC1 [Example 22, (1R,2R)-trans--4-(2-(4-cyclohexylbut-trans-1-enyl)cyclopropyl)imidazole] | 2.4 ± 0.2
34 | C(=CC1CC1c1c[nH]cn1)CCC1CCCCC1 [Example 23, (1R,2R)-trans-4-(2-(4-cyclohexylbut-cis-1-enyl)cyclopropyl)imidazole] | 6.2 ± 0.8
35 | C(=CC1CC1c1c[nH]cn1)CCC1CCCCC1 [Example 24, (1S,2S)-trans-4-(2-(4-cyclohexylbut-cis-1-enyl)cyclopropyl)imidazole] | 108 ± 3.9
36 | C(=CC1CC1c1c[nH]cn1)CCC1CCCCC1 [Example 25, (1S,2S)-trans-4-(2-(4-cyclohexylbut-trans-1-enyl)cyclopropyl)imidazole] | 56 ± 9
37 | O=C(NCCCC1CCCCC1)C1CC1c1c[nH]cn1 (stereo not shown) [Example 30] | 42 ± 7
